Experimental data published in ChEMBL document CHEMBL3797176, “Identification of selenocompounds with promising properties to reverse cancer multidrug resistance” (Bioorg Med Chem Lett, 2016).
pIC50: −log10 of the molar value.

Assays:
L5178Y [1] = assay: Induction of apoptosis in mouse L5178Y cells assessed as late apoptosis/necrosis at 2 uM after 1 hr by Annexin V-FITC/propidium iodide staining-based flow cytometry (reference value: 0.859%); format: functional
L5178Y [2] = assay: Induction of apoptosis in multi-drug resistant mouse L5178Y cells transfected with human MDR1 assessed as late apoptosis/necrosis at 2 uM after 1 hr by Annexin V-FITC/propidium iodide staining-based flow cytometry (reference value: 2.28%); format: functional
L5178Y [3] = assay: Induction of apoptosis in mouse L5178Y cells assessed as early apoptosis at 2 uM after 1 hr by Annexin V-FITC/propidium iodide staining-based flow cytometry (reference value: 3.96%); format: functional
[4] = biological target: T1, ATP-dependent translocase ABCB1 (Homo sapiens, UniProt P08183); assay: Inhibition of human MDR1 transfected in multi-drug resistant mouse L5178Y cells assessed as fluorescence activity ratio at 20 uM incubated for 10 mins by rhodamine 123 accumulation assay; format: cell-based
T1 sequence (P08183 whole entry): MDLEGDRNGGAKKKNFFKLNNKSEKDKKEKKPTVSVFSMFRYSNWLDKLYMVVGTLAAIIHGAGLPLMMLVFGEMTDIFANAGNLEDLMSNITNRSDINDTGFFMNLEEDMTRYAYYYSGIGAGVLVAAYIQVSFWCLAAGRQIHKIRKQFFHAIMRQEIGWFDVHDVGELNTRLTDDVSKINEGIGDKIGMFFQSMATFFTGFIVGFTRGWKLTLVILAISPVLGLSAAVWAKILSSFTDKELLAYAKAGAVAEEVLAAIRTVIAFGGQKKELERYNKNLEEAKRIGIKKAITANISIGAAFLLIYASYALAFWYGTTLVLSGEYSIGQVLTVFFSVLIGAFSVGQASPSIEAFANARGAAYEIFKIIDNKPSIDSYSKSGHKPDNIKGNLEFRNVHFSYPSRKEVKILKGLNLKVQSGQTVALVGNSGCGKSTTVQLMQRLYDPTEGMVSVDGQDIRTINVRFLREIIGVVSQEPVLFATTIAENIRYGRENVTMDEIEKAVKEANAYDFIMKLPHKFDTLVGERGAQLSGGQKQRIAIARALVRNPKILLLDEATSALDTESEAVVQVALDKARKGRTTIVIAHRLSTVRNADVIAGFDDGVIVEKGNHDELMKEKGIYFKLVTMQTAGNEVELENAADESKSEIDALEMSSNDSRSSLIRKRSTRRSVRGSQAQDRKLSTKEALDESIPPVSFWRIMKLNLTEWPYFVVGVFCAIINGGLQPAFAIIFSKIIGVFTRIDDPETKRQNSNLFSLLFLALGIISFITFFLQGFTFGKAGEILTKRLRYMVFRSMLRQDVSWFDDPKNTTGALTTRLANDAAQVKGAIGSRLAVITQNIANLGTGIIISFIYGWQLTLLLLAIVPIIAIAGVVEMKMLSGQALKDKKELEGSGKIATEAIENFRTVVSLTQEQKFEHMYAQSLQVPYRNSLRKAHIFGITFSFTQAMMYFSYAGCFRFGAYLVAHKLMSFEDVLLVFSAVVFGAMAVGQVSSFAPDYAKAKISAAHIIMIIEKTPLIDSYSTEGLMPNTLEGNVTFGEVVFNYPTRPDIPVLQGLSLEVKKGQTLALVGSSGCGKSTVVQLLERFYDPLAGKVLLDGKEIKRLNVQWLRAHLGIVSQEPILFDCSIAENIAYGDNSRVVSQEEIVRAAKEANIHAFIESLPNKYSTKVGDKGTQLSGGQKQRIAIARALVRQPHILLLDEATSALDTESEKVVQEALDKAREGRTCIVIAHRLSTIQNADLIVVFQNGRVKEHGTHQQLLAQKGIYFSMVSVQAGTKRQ

[5] = biological target: T1, ATP-dependent translocase ABCB1; assay: Inhibition of human MDR1 transfected in multi-drug resistant mouse L5178Y cells assessed as fluorescence activity ratio quotient at 20 uM incubated for 10 mins by rhodamine 123 accumulation assay relative to verapamil; format: cell-based; set-up: scale not given: the % may be the effect or the level left
[6] = biological target: T1, ATP-dependent translocase ABCB1; assay: Inhibition of human MDR1 transfected in multi-drug resistant mouse L5178Y cells assessed as fluorescence activity ratio at 2 uM incubated for 10 mins by rhodamine 123 accumulation assay; format: cell-based
L5178Y [7] = assay: Induction of apoptosis in multi-drug resistant mouse L5178Y cells transfected with human MDR1 assessed as early apoptosis at 2 uM after 1 hr by Annexin V-FITC/propidium iodide staining-based flow cytometry (reference value: 6.46%); format: functional
L5178Y [8] = assay: Induction of apoptosis in mouse L5178Y cells assessed as cell death at 2 uM after 1 hr by Annexin V-FITC/propidium iodide staining-based flow cytometry (reference value: 0.191%); format: functional
[9] = biological target: T1, ATP-dependent translocase ABCB1; assay: Inhibition of human MDR1 transfected in multi-drug resistant mouse L5178Y cells assessed as fluorescence activity ratio quotient at 2 uM incubated for 10 mins by rhodamine 123 accumulation assay relative to verapamil; format: cell-based; set-up: scale not given: the % may be the effect or the level left
L5178Y [10] = assay: Cytotoxicity against mouse L5178Y cells assessed as growth inhibition after 72 hrs by MTT assay; format: functional, cell-based
L5178Y [11] = assay: Induction of apoptosis in multi-drug resistant mouse L5178Y cells transfected with human MDR1 assessed as cell death at 2 uM after 1 hr by Annexin V-FITC/propidium iodide staining-based flow cytometry (reference value: 0.09%); format: functional
L5178Y [12] = assay: Cytotoxicity against multi-drug resistant mouse L5178Y cells assessed as growth inhibition after 72 hrs by MTT assay; format: functional, cell-based
[13] = biological target: T1, ATP-dependent translocase ABCB1; assay: Inhibition of human MDR1 transfected in multi-drug resistant mouse L5178Y cells at 2 uM incubated for 10 mins by rhodamine 123 accumulation assay relative to verapamil; format: cell-based
[14] = biological target: T1, ATP-dependent translocase ABCB1; assay: Inhibition of human MDR1 transfected in multi-drug resistant mouse L5178Y cells at 20 uM incubated for 10 mins by rhodamine 123 accumulation assay relative to verapamil; format: cell-based
L5178Y [15] = assay: Ratio of induction of apoptosis in mouse L5178Y cells to multi-drug resistant mouse L5178Y cells transfected with human MDR1; format: functional
L5178Y [16] = assay: Induction of apoptosis in multi-drug resistant mouse L5178Y cells transfected with human MDR1 assessed as early apoptosis at 20 uM after 1 hr by Annexin V-FITC/propidium iodide staining-based flow cytometry (reference value: 6.46%); format: functional
L5178Y [17] = assay: Induction of apoptosis in mouse L5178Y cells assessed as late apoptosis/necrosis at 20 uM after 1 hr by Annexin V-FITC/propidium iodide staining-based flow cytometry (reference value: 0.859%); format: functional
L5178Y [18] = assay: Induction of apoptosis in multi-drug resistant mouse L5178Y cells transfected with human MDR1 assessed as cell death at 20 uM after 1 hr by Annexin V-FITC/propidium iodide staining-based flow cytometry (reference value: 0.09%); format: functional
L5178Y [19] = assay: Induction of apoptosis in multi-drug resistant mouse L5178Y cells transfected with human MDR1 assessed as late apoptosis/necrosis at 20 uM after 1 hr by Annexin V-FITC/propidium iodide staining-based flow cytometry (reference value: 2.28%); format: functional
L5178Y [20] = assay: Induction of apoptosis in mouse L5178Y cells assessed as cell death at 20 uM after 1 hr by Annexin V-FITC/propidium iodide staining-based flow cytometry (reference value: 0.191%); format: functional
L5178Y [21] = assay: Induction of apoptosis in mouse L5178Y cells assessed as early apoptosis at 20 uM after 1 hr by Annexin V-FITC/propidium iodide staining-based flow cytometry (reference value: 3.96%); format: functional

Row | SMILES | Activity (L5178Y [1]) [%] | Activity (L5178Y [2]) [%] | Activity (L5178Y [3]) [%] | Ratio [4] | Activity [5] [%] | Ratio [6] | Activity (L5178Y [7]) [%] | Activity (L5178Y [8]) [%] | Activity [9] [%] | pIC50 (L5178Y [10]) | Activity (L5178Y [11]) [%] | pIC50 (L5178Y [12]) | fold change (FC) [14] | also measured
1 | C[Se]C(=O)c1ccc(C(=O)[Se]C)cc1 | 2.01 | 3.25 | 3.61 | 3.09 | 14.49 | 3.97 | 3.01 | 0.11 | 18.64 | < 4.00 | 0.37 | < 4.00 |  | 
2 | O=C1[Se]C(=O)c2ccccc21 | 53.9 | 45 | 31.5 | 97.61 | 356.2 | 43.14 | 32.2 | 0.767 | 157.4 | 5.40 | 0.47 | 5.33 | 1.7 | fold change (FC) [13]: 1.6
3 | C[Se]C(=O)c1cccc(C(=O)[Se]C)c1 | 3.79 | 2.8 | 4.47 | 0.98 | 3.39 | 0.93 | 4.35 | 0.076 | 2.78 | < 4.00 | 0.45 | < 4.00 |  | 
4 | C[Se]C(=O)c1ccc(C(=O)[Se]C)s1 | 6.93 | 2.34 | 6.64 | 1.07 | 3.19 | 0.99 | 5.07 | 0.352 | 3.61 | < 4.00 | 0.3 | < 4.00 |  | 
5 | CC(C)(C)C(=O)C[Se]C(=O)c1ccc(Cl)cc1 | 56.1 | 21.9 | 36.1 | 48.67 | 177.63 | 9.28 | 15.9 | 0.255 | 33.87 | 6.03 | 1.21 | 6.37 | 1.7 | Ratio (L5178Y [15]): 2
6 | O=C(C[Se]C(=O)c1ccccc1)Oc1ccccc1 | 2.11 | 2.26 | 3 | 5.68 | 2.37 | 0.65 | 3.9 | 0.24 | 3.05 | < 4.00 | 0.16 | < 4.00 |  | 
7 | C[Se]C(=O)c1cccc(C(=O)[Se]C)n1 | 7.18 | 3.28 | 5.97 | 1.49 | 5.44 | 1.13 | 5.38 | 0.202 | 3.98 | 4.71 | 0.24 | 4.77 |  | 
8 | CSc1ccc2c(c1)N(CCC1CCCCN1C)c1ccccc1S2 (stereo not drawn) [THIORIDAZINE] |  |  |  |  |  |  |  |  |  | 4.90 |  | 5.13 |  | 
9 | COC(=O)C[Se]C(=O)c1ccc(Cl)cc1 | 2.52 | 1.47 | 5.09 | 8.53 | 23.54 | 6.45 | 2.69 | 0.497 | 30.28 | < 4.00 | 0.03 | 4.06 |  | 
10 | c1ccc2c(c1)Nc1c(ccc3ccccc13)S2 |  |  |  |  |  |  |  |  |  |  |  |  |  | Activity (L5178Y [16]): 47.9%; Activity (L5178Y [17]): 5.58%; Activity (L5178Y [18]): 0.12%; Activity (L5178Y [19]): 45.7%; Activity (L5178Y [20]): 0.279%; Activity (L5178Y [21]): 51.2%
11 | COc1cc(OC)cc(C(=O)[Se]CC(=O)C(C)(C)C)c1 | 66.6 | 30.5 | 15.7 | 46.35 | 169.16 | 12.56 | 16.6 | 0.167 | 45.84 | 5.88 | 0.51 | 6.01 | 1.7 | Ratio (L5178Y [15]): 2
12 | CC(=O)C[Se]C(=O)c1ccc(Cl)cc1 | 52.7 | 85.8 | 30.8 | 84.64 | 308.91 | 94.2 | 3.86 | 0.874 | 343.79 | 6.11 | 7.66 | 5.99 | 1.7 | fold change (FC) [13]: 1.6
13 | NC(=O)C[Se]C(=O)c1ccccc1 | 2.24 | 2.91 | 2.46 | 1.05 | 3.72 | 1.02 | 3.01 | 0.081 | 3.04 | < 4.00 | 0.33 | 4.44 |  | 
